Measurements as given in patent US10201523B2, “Use of wilforlide A for overcoming chemotherapy resistance” (WESTERN UNIVERSITY OF HEALTH SCIENCES, priority 2013, dated 2019).
Values joined by “and” are separate entries in the source; they are usually repeats but may differ in a detail not shown here. Equal values may be shown once. Read-outs that look alike come from different tables or passages of the source.

What was measured:
K562/Dox = assay: SRB cell viability assay, daunorubicin with/without wilforlide A pretreatment; assay type: cell-based; conditions: for viability at 0.001 µM / viability at 0.1 µM / viability at 0.333 µM / viability at 1 µM / viability at 3.33 µM / viability at 10 µM / viability at 33.3 µM / viability at 100 µM / IC50: Homo sapiens; for A at 565 nm: background = 0.043
Text: Wilforlide A sensitizes the daunorubicin-resistant myelogenous leukemia line K562/Dox, to daunorubicin. […] FIG. 5 summarizes the data of Tables 20 and 21 in a graphical format.

K562 = assay: SRB cell viability assay, daunorubicin IC50; assay type: cell-based; conditions: Homo sapiens, 72 h, read-out: Drug IC50 no pre-Tx
[1] = K562/Dox, no wilforlide A pre-Tx, daunorubicin 0.001 μM 72 h
[2] = K562/Dox, no wilforlide A pre-Tx, daunorubicin 0.333 μM 72 h
[3] = K562/Dox, no wilforlide A pre-Tx, daunorubicin 1 μM 72 h
[4] = K562/Dox, no wilforlide A pre-Tx, daunorubicin 3.33 μM 72 h
[5] = K562/Dox, no wilforlide A pre-Tx, daunorubicin 10 μM 72 h
[6] = K562/Dox, no wilforlide A pre-Tx, daunorubicin 33.3 μM 72 h
[7] = K562/Dox, no wilforlide A pre-Tx, daunorubicin 100 μM 72 h
[8] = K562/Dox, wilforlide A 2.5 μg/ml pre-Tx, daunorubicin 0.001 μM 72 h
[9] = K562/Dox, wilforlide A 2.5 μg/ml pre-Tx, daunorubicin 0.333 μM 72 h
[10] = K562/Dox, wilforlide A 2.5 μg/ml pre-Tx, daunorubicin 1 μM 72 h
[11] = K562/Dox, wilforlide A 2.5 μg/ml pre-Tx, daunorubicin 3.33 μM 72 h
[12] = K562/Dox, wilforlide A 2.5 μg/ml pre-Tx, daunorubicin 10 μM 72 h
[13] = K562/Dox, wilforlide A 2.5 μg/ml pre-Tx, daunorubicin 33.3 μM 72 h
[14] = K562/Dox, wilforlide A 2.5 μg/ml pre-Tx, daunorubicin 100 μM 72 h

SMILES: COc1cccc2c1C(=O)c1c(O)c3c(c(O)c1C2=O)C[C@@](O)(C(C)=O)C[C@@H]3O[C@H]1C[C@H](N)[C@H](O)[C@H](C)O1 [daunorubicin]
- viability at 0.001 µM (K562/Dox; K562, 72 h, K562/Dox, no wilforlide A pre-Tx, daunorubicin 0.001 μM 72 h): 100%
- viability at 0.1 µM (K562/Dox; K562, 72 h, K562/Dox, no wilforlide A pre-Tx, daunorubicin 0.1 μM 72 h): 58.1%
- viability at 0.333 µM (K562/Dox; K562, 72 h, K562/Dox, no wilforlide A pre-Tx, daunorubicin 0.333 μM 72 h): 102%
- viability at 1 µM (K562/Dox; K562, 72 h, K562/Dox, no wilforlide A pre-Tx, daunorubicin 1 μM 72 h): 99.6%
- viability at 3.33 µM (K562/Dox; K562, 72 h, K562/Dox, no wilforlide A pre-Tx, daunorubicin 3.33 μM 72 h): 95.9%
- viability at 10 µM (K562/Dox; K562, 72 h, K562/Dox, no wilforlide A pre-Tx, daunorubicin 10 μM 72 h): 92.3%
- viability at 33.3 µM (K562/Dox; K562, 72 h, K562/Dox, no wilforlide A pre-Tx, daunorubicin 33.3 μM 72 h): 53.8%
- viability at 100 µM (K562/Dox; K562, 72 h, K562/Dox, no wilforlide A pre-Tx, daunorubicin 100 μM 72 h): 22.4%
- viability at 0.001 µM (K562/Dox; K562, 72 h, K562/Dox, wilforlide A 2.5 μg/ml pre-Tx, daunorubicin 0.001 μM 72 h): 100%
- viability at 0.1 µM (K562/Dox; K562, 72 h, K562/Dox, wilforlide A 2.5 μg/ml pre-Tx, daunorubicin 0.1 μM 72 h): 54.1%
- viability at 0.333 µM (K562/Dox; K562, 72 h, K562/Dox, wilforlide A 2.5 μg/ml pre-Tx, daunorubicin 0.333 μM 72 h): 104%
- viability at 1 µM (K562/Dox; K562, 72 h, K562/Dox, wilforlide A 2.5 μg/ml pre-Tx, daunorubicin 1 μM 72 h): 99%
- viability at 3.33 µM (K562/Dox; K562, 72 h, K562/Dox, wilforlide A 2.5 μg/ml pre-Tx, daunorubicin 3.33 μM 72 h): 95.4%
- viability at 10 µM (K562/Dox; K562, 72 h, K562/Dox, wilforlide A 2.5 μg/ml pre-Tx, daunorubicin 10 μM 72 h): 78.6%
- viability at 33.3 µM (K562/Dox; K562, 72 h, K562/Dox, wilforlide A 2.5 μg/ml pre-Tx, daunorubicin 33.3 μM 72 h): 33.7%
- viability at 100 µM (K562/Dox; K562, 72 h, K562/Dox, wilforlide A 2.5 μg/ml pre-Tx, daunorubicin 100 μM 72 h): 29.6%
- IC50 (K562/Dox; K562, 72 h, read-out: Drug IC50 no pre-Tx): 30.7 µM
- IC50 (K562/Dox; K562, read-out: Drug IC50 after wilforlide A pre-Tx): 13.6 µM
- mean A (K562/Dox; [1]): 2.893
- A at 565 nm (K562/Dox; [1]): 2.848 and 2.923 and 2.909
- mean A (K562/Dox; K562/Dox, no wilforlide A pre-Tx, daunorubicin 0.1 μM 72 h): 1.682
- mean A (K562/Dox; [2]): 2.951
- A at 565 nm (K562/Dox; [2]): 2.943 and 2.956 and 2.955
- mean A (K562/Dox; [3]): 2.880
- A at 565 nm (K562/Dox; [3]): 2.892 and 2.878 and 2.872
- mean A (K562/Dox; [4]): 2.775
- A at 565 nm (K562/Dox; [4]): 2.805 and 2.780 and 2.741
- mean A (K562/Dox; [5]): 2.670
- A at 565 nm (K562/Dox; [5]): 2.678 and 2.720 and 2.613
- mean A (K562/Dox; [6]): 1.556
- A at 565 nm (K562/Dox; [6]): 1.625 and 1.639 and 1.406
- mean A (K562/Dox; [7]): 0.647
- A at 565 nm (K562/Dox; [7]): 0.757 and 0.657 and 0.528
- mean A (K562/Dox; [8]): 2.815
- A at 565 nm (K562/Dox; [8]): 2.797 and 2.838 and 2.810
- mean A (K562/Dox; K562/Dox, wilforlide A 2.5 μg/ml pre-Tx, daunorubicin 0.1 μM 72 h): 1.522
- mean A (K562/Dox; [9]): 2.938
- A at 565 nm (K562/Dox; [9]): 2.838 and 2.951 and 3.025
- mean A (K562/Dox; [10]): 2.786
- A at 565 nm (K562/Dox; [10]): 2.777 and 2.784 and 2.799
- mean A (K562/Dox; [11]): 2.684
- A at 565 nm (K562/Dox; [11]): 2.657 and 2.681 and 2.715
- mean A (K562/Dox; [12]): 2.213
- A at 565 nm (K562/Dox; [12]): 2.200 and 2.392 and 2.049
- mean A (K562/Dox; [13]): 0.947
- A at 565 nm (K562/Dox; [13]): 1.016 and 0.901 and 0.926
- mean A (K562/Dox; [14]): 0.832
- A at 565 nm (K562/Dox; [14]): 0.843 and 0.815 and 0.840
- CE (K562/Dox; chemosensitization effect, K562/Dox, wilforlide A 2.5 μg/ml pre-Tx): 2.27
- IC50 (K562): 1.05 µM
